Test results published in patent publication US12459952B2, “TREM2 modulators” (Muna Therapeutics ApS, priority 2024, dated 2025).

Biological target: T1, Human TREM2 (Homo sapiens, UniProt Q9NZC2)
T1 construct: expressed in transfected cells
Experiment: Human TREM2 cellular phospho-Syk AlphaLISA assay in HEK293/DAP12+TREM2 stable cell line
Assay type: cell-based
Details: HEK293/DAP12+TREM2 cells; for Emax: maximal response relative to the maximal response of the reference agonist, phospho-Syk AlphaLISA; for EC50: phospho-Syk (Tyr525/526) AlphaLISA signal, 30 min incubation
Text: Human TREM2, in vitro Measurement of Triggering Receptor Expressed on Myeloid Cells 2 activity using cellular phosphorylation of Spleen Tyrosine Kinase (“Syk”) Assay
HEK-293 cells were co-transfected with separate plasmids encoding TREM2 and DAP12 to generate a stable cell line. After antibiotic selection, functional clone pool analysis and two successive limiting dilutions, the final clone “HEK293/DAP12+TREM2” underwent a qPCR analysis and a pharmacological validation.
TREM2 signaling through DAP12 was monitored in the HEK293/DAP12+TREM2 stable cell line by measuring the phosphorylation levels of the Syk kinase using the commercially available AlphaLISA SureFire Ultra p-SYK (Tyr525/526) Assay Kit (PerkinElmer #ALSU-PSYK), based on the Perkin Elmer AlphaScreen/AlphaLISA technology.
Compounds are transferred to the test plate and tested in full dose response, 8 concentrations in quadruplicate data points. Compound serial dilutions were performed at Cybi-Felix instrument in 100% DMSO and the dose response curves were assembled in automated fashion in 384MPT at Hamilton STARlet instrument. All the stock solutions were prepared at 20 mM in 100% DMSO. For compounds testing, the starting concentration was 100 μM, dilution steps 1:6. A different concentration's range was adapted for compound's activity based on the preliminary results. Finally, a 384MPT reformatted for all compounds at 8 concentrations, quadruplicates, was used as “mother to child” process with a CyBi@-Well dispenser in which 1 μL of each compound was moved into a destination plate pre-filled with […] of EMEM cell culture medium (BIOWHITTAKER_cat.BE12-125F), thus obtaining 3× concentrated compounds working solution. In columns 1-2 and 23-24 the control wells were added. In particular, dose response curves of a reference control agonist were included in column 1 and 24 as reference control agonist (Reference control agonists used include Human TREM2 polyclonal Antibody AF1828: R&D Systems; Human TREM2 monoclonal Antibody MAB1828: R&D Systems). The dose response curves were tested starting at 30 μM, dilution step 1:6. Both “source” compound plate and “destination” compound plate were barcoded and a relationship between the two plates was thus generated.
HEK293/DAP12+TREM2 cells were cultured in EMEM medium supplemented with IX Penicillin/Streptomycin (BIOWHITTAKER_cat.DE17-602E), ULTRAGLUTAMINE I 200 mM, 10% Fetal Bovine Serum plus antibiotics referred to as “HEK293 Culture Medium”. The day before the experiment, cells were detached by gentle wash with DPBS, followed by 5 min incubation at 37° C. with Trypsin solution. Cells were then diluted in HEK293 Culture Medium without antibiotics, counted and seeded into 384-well poly-D-Lysine coated microplates black/clear bottom (GREINER 781946) at a density of 10,000 cells/well in 25 μL/well by the use of a MATRIX WellMate dispenser. Plates were placed into a humidified cell culture incubator at 37° C. with 5% CO2 until the experimental day. 20-24 hours after seeding mature medium was removed and replaced with 10 μL/well of EMEM cell medium supplemented with 0.1% Pluronic F-68 non-ionic surfactant (Thermofisher, 24040032), referred to as “Assay Buffer”, using the CyBi@-Well instrument. Then 5 μL/well of Assay Buffer containing 3× concentrated test compounds or the reference control agonist (in 0.5% final DMSO concentration) were added to the cells with the CyBi@-Well instrument. Cell plates were incubated for 30 min into a humidified cell culture incubator at 37° C. with 5% CO2, then the medium was removed by manually discard. 20 μL/well of lysis buffer were dispensed using the CyBi@-Well instrument and plates were incubated for 10 min at room temperature on a plate shaker (350 rpm). Then, 10 μL/well of lysate were transferred to the Alpha plates.
The CyBi@-Well instrument was used to dispense 5 μL/well of AlphaLISA Acceptor Bead Solution in IX Immunoassay buffer (Perkin Elmer AL000F). […]

T1 sequence (Q9NZC2 19-230): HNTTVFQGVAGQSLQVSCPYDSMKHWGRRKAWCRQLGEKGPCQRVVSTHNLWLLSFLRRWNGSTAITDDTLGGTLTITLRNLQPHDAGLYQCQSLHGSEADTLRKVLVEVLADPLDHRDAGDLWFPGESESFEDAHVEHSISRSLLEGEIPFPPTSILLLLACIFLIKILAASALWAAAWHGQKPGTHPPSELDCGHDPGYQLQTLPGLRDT
T1 sequence (O43914 22-113 partner): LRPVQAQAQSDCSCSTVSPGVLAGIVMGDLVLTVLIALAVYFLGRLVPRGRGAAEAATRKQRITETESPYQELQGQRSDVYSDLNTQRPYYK

| SMILES | Emax [%] | EC50 [nM] |
| --- | --- | --- |
| Cc1cncc(OC2CN(c3nc(-c4ccc(C#N)cc4F)c4nc(C(F)(F)F)n(C)c(=O)c4n3)C2)n1 [Example 6, 3-fluoro-4-(7-methyl-2-(3-((6-methylpyrazin-2-yl)oxy)azetidin-1-yl)-8-oxo-6-(trifluoromethyl)-7,8-dihydropyrimido[5,4-d]pyrimidin-4-yl)benzonitrile] | < 75 | 100 to 1000 |
| Cc1c(OC2CN(c3nc(-c4ccc(C#N)cc4F)c4nc(C(F)(F)F)n(C)c(=O)c4n3)C2)cnn1C [Example 8, 4-(2-(3-((1,5-dimethyl-1H-pyrazol-4-yl)oxy)azetidin-1-yl)-7-methyl-8-oxo-6-(trifluoromethyl)-7,8-dihydropyrimido[5,4-d]pyrimidin-4-yl)-3-fluorobenzonitrile] | < 75 | 100 to 1000 |

Results, then the compound that gave them:

| Emax [%] | EC50 [nM] | SMILES |
| --- | --- | --- |
| < 75 | 100 to 1000 | COc1ccc(-c2nc(N3CC(Oc4cnn(C5CC5)c4)C3)nc3c(=O)n(C)c(C(F)(F)F)nc23)c(F)c1 [Example 36, 6-(3-((1-cyclopropyl-1H-pyrazol-4-yl)oxy)azetidin-1-yl)-8-(2-fluoro-4-methoxyphenyl)-3-methyl-2-(trifluoromethyl)pyrimido[5,4-d]pyrimidin-4(3H)-one] |
| < 75 | 10 to 100 | Cn1c(C(F)(F)F)nc2c(-c3ccc(F)cc3F)nc(N3CC(Oc4cnn(C5CC5)c4)C3)nc2c1=O [Example 32, 6-(3-((1-cyclopropyl-1H-pyrazol-4-yl)oxy)azetidin-1-yl)-8-(2,4-difluorophenyl)-3-methyl-2-(trifluoromethyl)pyrimido[5,4-d]pyrimidin-4(3H)-one] |
| 75 to 110 | 10 to 100 | Cn1c(C(F)(F)F)nc2c(-c3ccc(C#N)cc3F)nc(N3CC(Oc4ccnc(OC(F)F)c4)C3)nc2c1=O [Example 24, 4-(2-(3-((2-(difluoromethoxy)pyridin-4-yl)oxy)azetidin-1-yl)-7-methyl-8-oxo-6-(trifluoromethyl)-7,8-dihydropyrimido[5,4-d]pyrimidin-4-yl)-3-fluorobenzonitrile] |
